Drawing on publication PMC6220272, “Scaffold-Hopping from Synthetic Drugs by Holistic Molecular Representation” (Scientific Reports, 2018), this text covers EC50 for three molecules.

Common to all, as to assay type: cell-based
Experiment [1] concerns the target T1, human RXRβ ligand binding domain (Gal4 hybrid receptor) (Homo sapiens, UniProt P28702).
T1 construct: expressed in transfected cells; host or cells: HEK293T
T1 sequence (P28702 296-529 limits assumed): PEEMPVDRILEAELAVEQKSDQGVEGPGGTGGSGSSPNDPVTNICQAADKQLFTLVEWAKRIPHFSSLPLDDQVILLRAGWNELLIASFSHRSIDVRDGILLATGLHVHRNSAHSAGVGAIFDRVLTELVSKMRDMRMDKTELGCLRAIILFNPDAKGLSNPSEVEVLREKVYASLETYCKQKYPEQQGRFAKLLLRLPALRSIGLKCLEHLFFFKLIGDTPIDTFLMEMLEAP
Nature of the experiment: Gal4 hybrid reporter gene assay RXRβ. The following applies: HEK293T cells, n ≥ 4, read-out: RXRβ EC50 ± SEM. The method, then: (§1) The 20 top-ranked synthetic compounds were selected and tested in vitro for their modulatory activity on RXR (Supplementary Table 1). Compounds were tested in specific hybrid reporter gene assays for RXRα, RXRβ and RXRγ modulation[39]–[41]. These assays rely on a constitutively expressed hybrid receptor composed of the respective human RXR ligand binding domain and the DNA binding domain of the Gal4 receptor from yeast. A Gal4 responsive firefly luciferase was used as reporter gene and constitutively expressed renilla luciferase served as internal control for transfection efficiency and test compound toxicity. All selected compounds were tested at 50 µM concentration on RXRα and for active compounds (Supplementary Fig. 1), dose response curves were recorded on all three RXR subtypes.
(§2) The Gal4 hybrid reporter gene assays were conducted as reported previously[39]–[41]. pFA-CMV-based constructs comprising the ligand binding domain of the human nuclear receptor in question were used as expression plasmids for the chimera receptors. pFR-Luc (Stratagene) served as reporter plasmid and pRL-SV40 (Promega) for normalization of transfection efficiency and cell growth. The assays were conducted in 96-well format in HEK293T cells that were cultured as described previously[39]–[41]. Transient transfection was carried out using Lipofectamine LTX reagent (Invitrogen) according to the manufacturer’s protocol. After transfection and incubation with test compounds (12–14 h), cells were assayed for luciferase activity using Dual-Glo™ Luciferase Assay System (Promega) according to the manufacturer’s protocol. Luminescence was measured with an Infinite M200 luminometer (Tecan Deutschland GmbH). All hybrid assays were validated with reference agonists (PPARα: GW7647; PPARγ: pioglitazone; PPARδ: L165,041; LXRα/β: T0901317; FXR: GW4064; RXRs: bexarotene; RARs: tretinoin; VDR: calcitriol; CAR: CITCO; PXR: SR12813) which yielded EC50 values in agreement with literature. The assays were conducted in duplicates with at least two independent repeats and for active compounds repeated without hybrid receptor coding DNA for every test compound at the highest tested concentration to exclude unspecific effects.
(§3) Supplementary Figure 2. Dose-response curves for RXRα activation. Compounds were tested in specific hybrid reporter gene assays for RXRα, RXRβ and RXRγ modulation.^1–3 These assays rely on a constitutively expressed hybrid receptor composed of the respective human RXR ligand binding domain and the DNA binding domain of the Gal4 receptor from yeast. A Gal4 responsive firefly luciferase was used as reporter gene and constitutively expressed renilla luciferase served as internal control for transfection efficiency and test compound toxicity. […]
(A reporter such as luciferase makes a cellular process visible.)

Experiment [2] addresses T2, human RXRγ ligand binding domain (Gal4 hybrid receptor) (Homo sapiens, UniProt P48443).
T2 construct: expressed in transfected cells; host or cells: HEK293T
T2 sequence (P48443 231-459 limits assumed): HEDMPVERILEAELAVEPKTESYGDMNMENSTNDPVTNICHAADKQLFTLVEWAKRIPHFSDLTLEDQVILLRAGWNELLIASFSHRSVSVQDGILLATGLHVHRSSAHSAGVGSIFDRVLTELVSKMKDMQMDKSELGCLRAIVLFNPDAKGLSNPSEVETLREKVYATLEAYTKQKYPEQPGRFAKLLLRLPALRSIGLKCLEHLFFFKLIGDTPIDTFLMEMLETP
The experiment in a line: Gal4 hybrid reporter gene assay RXRγ. Conditions: HEK293T cells, n ≥ 4, read-out: RXRγ EC50 ± SEM. The method, then:
as §1, §2, §3

Experiment [3] deals with T3, human RXRα ligand binding domain (Gal4 hybrid receptor) (Homo sapiens, UniProt P19793).
T3 construct: expressed in transfected cells; host or cells: HEK293T
T3 sequence (P19793 227-458 limits assumed): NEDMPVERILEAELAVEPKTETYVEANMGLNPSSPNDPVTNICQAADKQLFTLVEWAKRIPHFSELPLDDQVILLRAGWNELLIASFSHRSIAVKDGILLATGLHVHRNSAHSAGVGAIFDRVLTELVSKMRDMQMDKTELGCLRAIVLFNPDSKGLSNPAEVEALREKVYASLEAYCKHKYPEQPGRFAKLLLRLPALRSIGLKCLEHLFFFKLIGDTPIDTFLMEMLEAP
Nature of the experiment: Gal4 hybrid reporter gene assay RXRα. Conditions: HEK293T cells, n ≥ 4, read-out: RXRα EC50 ± SEM. The method, then:
as §1, §2, §3

The term EC50 denotes the concentration needed to bring the measured effect to its halfway point. On to `Cc1ccc(NC2=NC(=O)/C(=C/c3ccc(O)cc3)S2)cc1C` [Compound 5], for which the EC50 in experiment [1] worked out at 14.7 ± 0.8 µM; in experiment [2] it was 15 ± 0.6 µM; in experiment [3] it was 17 ± 1 µM.
For the molecule `CC(NC(=O)c1cccc(OCc2ccccc2)c1)c1ccccc1` (stereo not drawn) [Compound 6], the EC50 was 16.6 ± 0.2 µM in experiment [1], 16 ± 4 µM in experiment [2] and 16.5 ± 0.6 µM in experiment [3].
Taken in the same sequence, the figures for `CC/C(=N/NC(=S)Nc1ccc(Cl)cc1Cl)c1ccc(O)cc1` [Compound 8] were 25.6 ± 0.4 µM, 32 ± 3 µM and 23.7 ± 0.7 µM.
